The target of experiment [1] is T1, PI3Kα (Homo sapiens, UniProt P42336).
T1 construct: purchased SignalChem P27-122DH
The experiment can be described thus: ADP-Glo kinase assay, PI3Kα enzyme inhibition. In kind it is biochemical. The settings on record: at 1 nM. As for the experimental part:
The enzymatic inhibitory assays of all target compounds against PI3Kα were performed with the ADP-Glo assay (Promega, Madison, WI, USA, catalog No. V9102/3). Briefly, compounds were continuously diluted to a certain concentration. […] The mixture was added to a 96-well plate and incubated in a dark place at ambient temperature for 40 min. Then, the kinase reaction was stopped by adding of ADP-Glo reagent and the plate was incubated again at ambient temperature for another 40 min. The kinase detection reagent was added and the signal was collected via PerkinElmer Envision plate reader (PE, Boston, MA, USA).

Experiment [2] relates to HCT-116 cells. The experiment can be described thus: CCK-8 cell viability assay, HCT-116. The conditions noted are these: Homo sapiens, mean (n = 3). In kind it is cell-based. As for the experimental part:
(§1) MCF-7 and HCT-116 cells were purchased from the Meilunbio Biotechnology Co., Ltd. (Dalian, China). Cells were cultured at 37 °C with 5% CO2, using DMEM or RPMI 1640 medium (Meilunbio, Dalian, China) with 10% (v/v) fetal bovine serum (Gibco, San Diego, CA, USA) and 1% (v/v) penicillin and streptomycin (Meilunbio, Dalian, China). CCK-8 assay was used to determine the inhibitory effect in vitro. In short, cells were incubated into 96-well plates at the rate of 5000 cells per well. After 24 h of incubation, 100 μL medium was added, which contained a specific concentration of the test compound. After 72 h, 10 μL CCK-8 regent was added and the plate was incubated at 37 °C, 5% CO2 for 1 h. The optical density of each hole at 450 nm was read by a BioTek TS-800 microplate reader. GraphPad Prism 9.3.1 software was used to calculate the IC50 value.

In experiment [3] the test system is MCF-7 cells. As to the kind of experiment: CCK-8 cell viability assay, MCF-7. The experiment is classed as cell-based. The settings on record: Homo sapiens, MCF7, 72 h, mean (n = 3). How it is done: as §1

T1 sequence (P42336 whole entry): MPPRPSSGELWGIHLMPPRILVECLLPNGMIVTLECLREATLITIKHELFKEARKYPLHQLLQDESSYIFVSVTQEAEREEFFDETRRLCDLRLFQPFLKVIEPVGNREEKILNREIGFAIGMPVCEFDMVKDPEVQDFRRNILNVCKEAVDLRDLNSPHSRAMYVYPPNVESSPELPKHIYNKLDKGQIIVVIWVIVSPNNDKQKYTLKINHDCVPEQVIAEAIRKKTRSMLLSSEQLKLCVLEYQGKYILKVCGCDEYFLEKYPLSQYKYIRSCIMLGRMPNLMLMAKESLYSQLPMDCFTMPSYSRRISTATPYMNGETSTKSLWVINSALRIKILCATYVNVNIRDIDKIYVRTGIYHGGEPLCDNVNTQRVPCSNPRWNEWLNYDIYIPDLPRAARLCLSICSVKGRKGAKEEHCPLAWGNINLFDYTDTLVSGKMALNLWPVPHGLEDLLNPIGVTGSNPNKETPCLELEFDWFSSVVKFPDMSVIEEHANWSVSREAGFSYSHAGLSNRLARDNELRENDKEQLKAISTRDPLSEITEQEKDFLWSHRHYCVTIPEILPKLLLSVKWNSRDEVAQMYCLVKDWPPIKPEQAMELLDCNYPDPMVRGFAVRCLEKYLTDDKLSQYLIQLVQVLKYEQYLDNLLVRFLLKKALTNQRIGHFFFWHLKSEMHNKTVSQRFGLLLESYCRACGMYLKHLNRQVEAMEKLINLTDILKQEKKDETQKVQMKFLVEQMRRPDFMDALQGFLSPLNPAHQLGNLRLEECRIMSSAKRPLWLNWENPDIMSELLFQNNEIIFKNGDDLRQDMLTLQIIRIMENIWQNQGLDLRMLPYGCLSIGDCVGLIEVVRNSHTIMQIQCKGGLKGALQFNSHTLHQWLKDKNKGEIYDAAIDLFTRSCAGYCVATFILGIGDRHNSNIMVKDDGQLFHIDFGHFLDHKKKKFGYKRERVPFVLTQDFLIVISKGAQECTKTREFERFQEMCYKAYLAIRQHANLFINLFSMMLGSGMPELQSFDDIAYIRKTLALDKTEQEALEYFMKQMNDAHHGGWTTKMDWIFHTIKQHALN
T1 sequence (P27986 whole entry partner): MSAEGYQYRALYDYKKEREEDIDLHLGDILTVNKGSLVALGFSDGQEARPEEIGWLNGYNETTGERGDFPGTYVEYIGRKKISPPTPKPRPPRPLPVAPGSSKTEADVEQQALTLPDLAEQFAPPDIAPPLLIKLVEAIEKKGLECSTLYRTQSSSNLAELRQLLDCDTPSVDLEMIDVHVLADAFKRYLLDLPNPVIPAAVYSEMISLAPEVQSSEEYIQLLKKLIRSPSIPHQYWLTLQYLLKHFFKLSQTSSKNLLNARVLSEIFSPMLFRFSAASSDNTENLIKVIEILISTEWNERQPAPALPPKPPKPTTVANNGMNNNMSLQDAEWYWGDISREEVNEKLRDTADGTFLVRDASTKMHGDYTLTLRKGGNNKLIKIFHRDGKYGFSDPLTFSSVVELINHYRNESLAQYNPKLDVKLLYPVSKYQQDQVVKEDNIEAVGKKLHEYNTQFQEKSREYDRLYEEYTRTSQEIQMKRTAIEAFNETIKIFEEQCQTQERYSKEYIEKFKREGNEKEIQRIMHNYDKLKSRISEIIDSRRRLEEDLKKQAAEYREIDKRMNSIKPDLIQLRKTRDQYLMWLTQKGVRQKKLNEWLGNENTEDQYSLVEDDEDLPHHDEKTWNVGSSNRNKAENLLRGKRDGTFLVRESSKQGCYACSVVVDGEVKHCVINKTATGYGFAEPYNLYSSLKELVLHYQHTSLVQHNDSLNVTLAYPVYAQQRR

What is called inhibition is the share of the control response that was lost under treatment. Higher therefore signals strong suppression. The IC50 is the concentration at which inhibition is half-maximal. Higher therefore signals a need for much substance. `COc1ncc(-c2ccc3c(c2)sc2c(NC4CC4)ncnc23)cc1NS(=O)(=O)c1ccc(F)cc1F` [11d, N-(5-(4-(cyclopropylamino)benzo[4,5]thieno[3,2-d]pyrimidin-7-yl)-2-methoxypyridin-3-yl)-2,4-difluorobenzenesulfonamide]: the inhibition at 0.001 µM in experiment [1] (Table 1) was 40%. Besides, the IC50 in experiment [2] (Table 1, 72 h) was 0.19 ± 0.12 µM; in experiment [3] (Table 1), 0.51 ± 0.11 µM.
In the case of `COc1ncc(-c2ccc3nccc(-c4ncc(C(=O)NC5CCCCC5)o4)c3c2)cc1NS(=O)(=O)c1ccc(F)cc1F` [22j, N-cyclohexyl-2-(6-(5-((2,4-difluorophenyl)sulfonamido)-6-methoxypyridin-3-yl)quinolin-4-yl)oxazole-5-carboxamide], the inhibition at 0.001 µM in experiment [1] (Table 3) turned out to be 18%. The IC50 in experiment [2] (Table 3, 72 h) is above 1 µM; in experiment [3] (Table 3) it was above 1 µM.
In experiment [1] (Table 1), `COc1ncc(-c2ccc3c(c2)sc2c(NCCN)ncnc23)cc1NS(=O)(=O)c1ccc(F)cc1F` [11f, N-(5-(4-((2-aminoethyl)amino)benzo[4,5]thieno[3,2-d]pyrimidin-7-yl)-2-methoxypyridin-3-yl)-2,4-difluorobenzenesulfonamide] displayed an inhibition at 0.001 µM of 10%. In addition, the IC50 in experiment [2] (Table 1, 72 h) turned out to be 0.77 ± 0.21 µM; in experiment [3] (Table 1), 0.69 ± 0.25 µM.
`COc1ncc(-c2cnc3ncnc(NCCN4CCOCC4)c3c2)cc1NS(=O)(=O)c1ccc(F)cc1F` [17g, N-(2-methoxy-5-(4-((2-morpholinoethyl)amino)pyrido[2,3-d]pyrimidin-6-yl)pyridin-3-yl) -2,4-difluorobenzenesulfonamide]: the inhibition at 0.001 µM in experiment [1] (Table 2) worked out at 11%. In addition, the IC50 was above 1 µM in experiment [2] (Table 2, 72 h) and above 1 µM in experiment [3] (Table 2).
In experiment [1] (Table 1), `COc1ncc(-c2ccc3c(c2)sc2c(N4CCC(C)CC4)ncnc23)cc1NS(=O)(=O)c1ccc(F)cc1F` [11b, N-(2-methoxy-5-(4-(4-methylpiperidin-1-yl)benzo[4,5]thieno[3,2-d]pyrimidin-7-yl)pyridin-3-yl) 2,4-difluorobenzenesulfonamide] displayed an inhibition at 0.001 µM of 10%. Further, the IC50 in experiment [2] (Table 1, 72 h) was above 1 µM; in experiment [3] (Table 1), above 1 µM.
Regarding `COc1ncc(-c2ccc3c(c2)sc2c(NC(C)C)ncnc23)cc1NS(=O)(=O)c1ccc(F)cc1F` [11g, N-(5-(4-(isopropylamino)benzo[4,5]thieno[3,2-d]pyrimidin-7-yl)-2-methoxypyridin-3-yl)-2,4-difluorobenzenesulfonamide], the inhibition at 0.001 µM in experiment [1] (Table 1) is 44%. The IC50 came to 0.22 ± 0.08 µM in experiment [2] (Table 1, 72 h) and 0.53 ± 0.16 µM in experiment [3] (Table 1).
In turn, `COc1ncc(-c2ccc3nccc(-c4ncc(C(=O)NCCc5ccc(Cl)cc5)o4)c3c2)cc1NS(=O)(=O)c1ccc(F)cc1F` [22l, N-(4-chlorophenethyl)-2-(6-(5-((2,4-difluorophenyl)sulfonamido)-6-methoxypyridin-3-yl)quinolin-4-yl)oxazole-5-carboxamide] returned an inhibition at 0.001 µM in experiment [1] (Table 3) of 15%. In addition, the IC50 in experiment [2] (Table 3, 72 h) was above 1 µM; in experiment [3] (Table 3), above 1 µM.
As for `COCCCNc1ncnc2c1sc1cc(-c3cnc(OC)c(NS(=O)(=O)c4ccc(F)cc4F)c3)ccc12` [11e, N-(2-methoxy-5-(4-((3-methoxypropyl)amino)benzo[4,5]thieno[3,2-d]pyrimidin-7-yl)pyridin-3-yl)-2,4-difluorobenzenesulfonamide], in experiment [1] (Table 1), the inhibition at 0.001 µM amounted to 35%. The IC50 in experiment [2] (Table 1, 72 h) was above 1 µM; in experiment [3] (Table 1), above 1 µM.
Compound `COc1ncc(-c2cnc3ncnc(NC(C)C)c3c2)cc1NS(=O)(=O)c1ccc(F)cc1F` [17a, 2,4-difluoro-N-(5-(4-(isopropylamino)pyrido[2,3-d]pyrimidin-6-yl)-2-methoxypyridin-3-yl)benzenesulfonamide] gave an inhibition at 0.001 µM in experiment [1] (Table 2) of 39%. The IC50 in experiment [2] (Table 2, 72 h) is 0.59 ± 0.15 µM; in experiment [3] (Table 2) it was 0.85 ± 0.3 µM.
The corresponding values for `COc1ncc(-c2cnc3ncnc(N4CCC(C)CC4)c3c2)cc1NS(=O)(=O)c1ccc(F)cc1F` [17f, N-(2-methoxy-5-(4-(4-methylpiperidin-1-yl)pyrido[2,3-d]pyrimidin-6-yl)pyridin-3-yl)-2,4-difluorobenzenesulfonamide] are 11%, 0.51 ± 0.25 µM and 0.86 ± 0.3 µM.
The matching figures for `COc1ncc(-c2cnc3ncnc(NCCN(C)C)c3c2)cc1NS(=O)(=O)c1ccc(F)cc1F` [17d, N-(5-(4-((2-(dimethylamino)ethyl)amino)pyrido[2,3-d]pyrimidin-6-yl)-2-methoxypyridin-3-yl)-2,4-difluorobenzenesulfonamide]: 31%, 0.52 ± 0.23 µM and 0.73 ± 0.19 µM.
The matching figures for `COc1ncc(-c2cnc3ncnc(NCC4CC4)c3c2)cc1NS(=O)(=O)c1ccc(F)cc1F` [17l, N-(5-(4-((cyclopropylmethyl)amino)pyrido[2,3-d]pyrimidin-6-yl)-2-methoxypyridin-3-yl)-2,4-difluorobenzenesulfonamide]: 25%, 0.47 ± 0.17 µM and 0.63 ± 0.12 µM.
Consider `CCCCNC(=O)c1cnc(-c2ccnc3ccc(-c4cnc(OC)c(NS(=O)(=O)c5ccc(F)cc5F)c4)cc23)o1` [22g, N-butyl-2-(6-(5-((2,4-difluorophenyl)sulfonamido)-6-methoxypyridin-3-yl)quinolin-4-yl)oxazole-5-carboxamide], for which the inhibition at 0.001 µM in experiment [1] (Table 3) came to 55%. Moreover, the IC50 in experiment [2] (Table 3, 72 h) amounted to 0.32 ± 0.09 µM; in experiment [3] (Table 3), 0.45 ± 0.09 µM.
The corresponding values for `COCCNC(=O)c1cnc(-c2ccnc3ccc(-c4cnc(OC)c(NS(=O)(=O)c5ccc(F)cc5F)c4)cc23)o1` [22e, 2-(6-(5-((2,4-difluorophenyl)sulfonamido)-6-methoxypyridin-3-yl)quinolin-4-yl)-N-(2-methoxyethyl)oxazole-5-carboxamide] are 69%, 0.13 ± 0.05 µM and 0.2 ± 0.09 µM.
The corresponding values for `COc1ccc(CCNC(=O)c2cnc(-c3ccnc4ccc(-c5cnc(OC)c(NS(=O)(=O)c6ccc(F)cc6F)c5)cc34)o2)cc1` [22k, 2-(6-(5-((2,4-difluorophenyl)sulfonamido)-6-methoxypyridin-3-yl)quinolin-4-yl)-N-(4-methoxyphenethyl)oxazole-5-carboxamide] are 22%, above 1 µM and above 1 µM.
In the case of `COCCNc1ncnc2ncc(-c3cnc(OC)c(NS(=O)(=O)c4ccc(F)cc4F)c3)cc12` [17j, N-(2-methoxy-5-(4-((2-methoxyethyl)amino)pyrido[2,3-d]pyrimidin-6-yl)pyridin-3-yl)-2,4-difluorobenzenesulfonamide], in experiment [1] (Table 2), the inhibition at 0.001 µM worked out at 24%. In addition, the half-inhibitory concentration (IC50) in experiment [2] (Table 2, 72 h) is 0.42 ± 0.12 µM; in experiment [3] (Table 2), 0.75 ± 0.25 µM.
Turning to `COc1ncc(-c2ccc3c(c2)sc2c(N4CCOCC4)ncnc23)cc1NS(=O)(=O)c1ccc(F)cc1F` [11a, 2,4-difluoro-N-(2-methoxy-5-(4-morpholinobenzo[4,5]thieno[3,2-d]pyrimidin-7-yl)pyridin-3-yl)benzenesulfonamide], in experiment [1] (Table 1), the inhibition at 0.001 µM stood at 10%. Moreover, the IC50 in experiment [2] (Table 1, 72 h) is above 1 µM; in experiment [3] (Table 1), 0.96 ± 0.23 µM.
In experiment [1] (Table 1), `COc1ncc(-c2ccc3c(c2)sc2c(OCCN(C)C)ncnc23)cc1NS(=O)(=O)c1ccc(F)cc1F` [11k, N-(5-(4-(2-(dimethylamino)ethoxy)benzo[4,5]thieno[3,2-d]pyrimidin-7-yl)-2-methoxypyridin-3-yl)-2,4-difluorobenzenesulfonamide] came in with an inhibition at 0.001 µM of 13%. The IC50 came out at 0.25 ± 0.08 µM in experiment [2] (Table 1, 72 h) and 0.69 ± 0.11 µM in experiment [3] (Table 1).
In experiment [1] (Table 3), `CNC(=O)c1cnc(-c2ccnc3ccc(-c4cnc(OC)c(NS(=O)(=O)c5ccc(F)cc5F)c4)cc23)o1` [22b, 2-(6-(5-((2,4-difluorophenyl)sulfonamido)-6-methoxypyridin-3-yl)quinolin-4-yl)-N-methyloxazole-5-carboxamide] registered an inhibition at 0.001 µM of 74%. In addition, the IC50 in experiment [2] (Table 3, 72 h) stood at 0.15 ± 0.04 µM; in experiment [3] (Table 3) it was 0.39 ± 0.08 µM.
`COc1ncc(-c2cnc3ncnc(NC4CC4)c3c2)cc1NS(=O)(=O)c1ccc(F)cc1F` [17b, N-(5-(4-(cyclopropylamino)pyrido[2,3-d]pyrimidin-6-yl)-2-methoxypyridin-3-yl)-2,4-difluorobenzenesulfonamide] came in with an inhibition at 0.001 µM in experiment [1] (Table 2) of 21%. Also, the IC50 is 0.35 ± 0.17 µM in experiment [2] (Table 2, 72 h) and 0.91 ± 0.39 µM in experiment [3] (Table 2).
As for `COc1ncc(-c2ccc3nccc(-c4ncc(C(=O)NCC5CCCCC5)o4)c3c2)cc1NS(=O)(=O)c1ccc(F)cc1F` [22i, N-(cyclohexylmethyl)-2-(6-(5-((2,4-difluorophenyl)sulfonamido)-6-methoxypyridin-3-yl)quinolin-4-yl)oxazole-5-carboxamide], the inhibition at 0.001 µM in experiment [1] (Table 3) amounted to 33%. For the same compound, the IC50 is 0.77 ± 0.19 µM in experiment [2] (Table 3, 72 h) and 1 ± 0.3 µM in experiment [3] (Table 3).

Source of the values: publication PMC10054477, “Design, Synthesis, and Biological Evaluation of Sulfonamide Methoxypyridine Derivatives as Novel PI3K/mTOR Dual Inhibitors” (Pharmaceuticals, 2023).
